According to US8309064B2, “Skin care compositions comprising phenoxyalkyl amines” (Conopco, Inc., priority 2009, dated 2012):

Each compound was assayed on Melanoderm tissue equivalent model MEL-300 containing melanocytes (assay: Inhibition of melanogenesis (total melanin content) in Melanoderm tissue equivalent model). Conditions: Melanocyte, 336 h; 5 μM in maintenance medium, 14 days, total melanin content, DMSO vehicle control.
Type: cell-based
Description: Melanoderm tissue equivalent model MEL-300 (MatTek: Ashland, Mass.) containing melanocytes obtained from dark skin individuals were cultured as per supplier instructions. Components were added to the maintenance medium phase (no topical treatments) at a final concentration of 5 μM for 14 days at which time the experiment was terminated and the tissues assessed for melanin content. Medium and treatments were changed three times per week. DMSO was utilized as the vehicle control and all treatments were performed at least in duplicate.
For quantification of total melanin, each Melanoderm was placed into an individual Eppendorf tube (2 mL) into which 250 μL of Solvable™ tissue solubilizer (Packard Bioscience Co., Cat#6NE9100) was added. Each tube was vortexed and incubated at 60° C. for 18 hours. Each sample was then centrifuged (5-minutes at 13,000 RPMs) to remove any particulates. 100 or 200 μL of supernatant were transferred to a 96 well microtiter plate and the absorbance read at 490 nm. Total melanin content was calculated from a standard curve using synthetic melanin (Sigma Cat# M8631). Data was analyzed for significance using the t-test in Microsoft Excel to generate p-values (p-values less than 0.01 represent 99% confidence, p values of 0.05 represent 95% confidence both of which are statistically significant).
Compound `OCCNCCCCCCOc1ccccc1` [5a, 2-(6-phenoxyhexylamino)ethanol] has an inhibition at 5 µM of 21.9%.
`Cc1ccccc1OCCCCCCNCCO` [5b, 2-[[6-(2-methylphenoxy)hexyl]amino]-ethanol] gave an inhibition at 5 µM of 24.1%.
For `CC(C)c1ccccc1OCCCCCCNC(C)(C)C` [5bb, 6-(2-isopropylphenoxy)-N-tert-butylhexan-1-amine], the inhibition at 5 µM was 44.2%.
`COCCNCCCCCCOc1ccccc1C` [5c, 6-(o-tolyloxy)-N-(2-methoxyethyl)hexan-1-amine] gave an inhibition at 5 µM of 31.7%.
`CC(C)(C)NCCCCCCOc1ccccc1C(C)(C)C` [5cc, 6-(2-tert-butylphenoxy)-N-tert-butylhexan-1-amine] showed an inhibition at 5 µM of 55.2%.
`Cc1ccccc1OCCCCCNCCO` [5d, 2-(5-(o-tolyloxy)pentylamino)ethanol] gave an inhibition at 5 µM of 20.8%.
Work on `CC(C)(C)NCCCCCCOc1ccccc1-c1ccccc1` [5dd, 6-(2-phenylphenoxy)-N-tert-butylhexan-1-amine] yielded an inhibition at 5 µM of 54.8%.
For `Cc1ccccc1OCCCCNCCO` [5e, 2-(4-(o-tolyloxy)butylamino)ethanol], the inhibition at 5 µM was 17.9%.
`CC(C)(C)NCCCCCCOc1cccc2ccccc12` [5ee, N-tert-butyl-6-(naphthalen-4-yloxy)hexan-1-amine] was tested, and the inhibition at 5 µM was 35.9%.
`Cc1ccccc1OCCCNCCO` [5f, 2-(3-(o-tolyloxy)propyalmino)ethanol] was tested, and the inhibition at 5 µM was 10.7%.
Work on `CCNCCCCCCOc1ccccc1C` [5ff, 6-(o-tolyloxy)-N-ethylhexan-1-amine] yielded an inhibition at 5 µM of 18.1%.
In the case of `Cc1ccccc1OCCNCCO` [5g, 2-(2-(o-tolyloxy)ethylamino)ethanol], the inhibition at 5 µM is reported as 3.2%.
For `CCNCCCCCCOc1cccc2ccccc12` [5gg, N-ethyl-6-(naphthalen-1-yloxy)hexan-1-amine], the inhibition at 5 µM was 35%.
With `CCNCCCCCCOc1ccccc1CC` [5hh, 6-(2-ethylphenoxy)-N-ethylhexan-1-amine] the inhibition at 5 µM was 37.1%.
With `Cc1ccccc1OCCCCCCNC(C)(C)C` [5i, 6-(o-tolyloxy)-N-tert-butylhexan-1-amine] the inhibition at 5 µM was 23.2%.
In the case of `Cc1ccccc1OCCCCCCN` [5ii, 6-(o-tolyloxy)hexan-1-amine], the inhibition at 5 µM is reported as -6.9%.
`Cc1ccccc1OCCCCCCN(C)C` [5j, 6-(o-tolyloxy)-N,N-dimethylhexan-1-amine] gave an inhibition at 5 µM of 24.2%.
In the case of `CC(=O)N(CCO)CCCCCCOc1ccccc1C` [5jj, N-(6-(o-tolyloxy)hexyl)-N-(2-hydroxyethyl)acetamide], the inhibition at 5 µM is reported as -5.2%.
With `CCN(C)CCCCCCOc1ccccc1C` [5k, 6-(o-tolyoxy)-N-ethyl-N-methylhexan-1-amine] the inhibition at 5 µM was 23.6%.
`OCCNCCCCCCCc1ccccc1` [5kk, 2-(7-phenylheptylamino)ethanol] gave an inhibition at 5 µM of 32.7%.
In the case of `CCN(CC)CCCCCCOc1ccccc1C` [5l, 6-(o-tolyloxy)-N,N-diethylhexan-1-amine], the inhibition at 5 µM is reported as 45.6%.
In the case of `OCCNCCCCCCOC1CCCCC1` [5ll, 2-(6-(cyclohexyloxy)hexylamino)ethanol], the inhibition at 5 µM is reported as 25%.
In the case of `Cc1ccccc1OCCCCCCN(CCO)CCO` [5m, 6-(o-tolyloxy)-N,N-di(2-hydroxyethyl)hexan-1-amine], the inhibition at 5 µM is reported as 32.9%.
`Cc1ccccc1OCCCCCCN1CCOCC1` [5n] showed an inhibition at 5 µM of 42.1%.
Compound `Cc1ccccc1OCCCCCCn1ccnc1` [5o, 1-(6-(o-tolyloxy)hexyl)-1H-imidazole] has an inhibition at 5 µM of 22.1%.
In the case of `Cc1cccc(OCCCCCCN(C)C)c1` [5p, 6-(m-tolyoxy)-N,N-dimethylhexan-1-amine], the inhibition at 5 µM is reported as 37.1%.
Compound `Cc1ccc(OCCCCCCN(C)C)cc1` [5q, 6-(p-tolyoxy)-N,N-dimethylhexan-1-amine] has an inhibition at 5 µM of 41.5%.
In the case of `CCc1ccccc1OCCCCCCN(C)C` [5r, 6-(2-ethylphenoxy)-N,N-dimethylhexan-1-amine], the inhibition at 5 µM is reported as 32.9%.
Work on `CC(C)c1ccccc1OCCCCCCN(C)C` [5t, 6-(2-isopropylphenoxy)-N,N-dimethylhexan-1-amine] yielded an inhibition at 5 µM of 48.5%.
Work on `CN(C)CCCCCCOc1ccccc1C(C)(C)C` [5u, 6-(2-tert-butylphenxoy)-N,N-dimethylhexan-1-amine] yielded an inhibition at 5 µM of 49.6%.
In the case of `CN(C)CCCCCCOc1ccccc1-c1ccccc1` [5v, 6-(2-phenylphenoxy)-N,N-dimethylhexan-1-amine], the inhibition at 5 µM is reported as 56.7%.
For `CN(C)CCCCCCOc1cccc2ccccc12` [5w, N,N-dimethyl-6-(naphthalen-4-yloxy)hexan-1-amine], the inhibition at 5 µM was 51.3%.
`Cc1ccc(OCCCCCCNC(C)(C)C)cc1` [5y, 6-(p-tolyloxy)-N-tert-butylhexan-1-amine] gave an inhibition at 5 µM of 47.5%.

Same assay, conditions: Melanoderm MEL-300, 5 μM, 14 days
For `Cc1ccccc1OCCCCCCNCCO` [5b, 2-[[6-(2-methylphenoxy)hexyl]amino]-ethanol], the “melanogenesis inhibition (in words)” value was “highest melanogenesis inhibition in this set”.
For `Cc1ccccc1OCCCCCNCCO` [5d, 2-(5-(o-tolyloxy)pentylamino)ethanol], the “melanogenesis inhibition (in words)” value was “highest melanogenesis inhibition in this set”.
